Experiment [1] deals with T1, IDO1 (Homo sapiens, UniProt P14902). Put plainly: IDO1 cellular activity using Hela cells (IFN-gamma induced IDO expression, kynurenine absorbance at 480 nm). The class given is cell-based. Conditions: IDO induced with interferon gamma 50 ng/ml, 24 h compound incubation, read-out: Inhibitory Activity (IC50). Here is the method:
Hela cells were seeded at a density of 20000 cells/well in 100 μl of a culture medium (EMEM supplemented with 10% FBS, penicillin 100 U/ml, and streptomycin 100 μg/ml) in a tissue culture-treated 96 well plate. The cells were cultured in a 5% carbon dioxide incubator for 24 hours, treated with recombinant human interferon gamma at the concentration of 50 ng/ml, and then cultured for 48 hours in a 5% carbon dioxide incubator to induce IDO expression.
The activities were measured using IDO1 cellular activity-measuring substrate (IDO1 cellular activity quickDetect supplements catalog: #62000-2, BPS Bioscience). Specifically, an assay medium was prepared by diluting IDO1 assay medium substrate 1 and IDO1 assay medium supplement 2 in a culture medium at a ratio of 1:100, respectively. The test compounds were diluted to the predetermined concentrations in the fresh assay medium. After removing the culture medium using a multi-pipet, 200 μl of each assay medium containing the test material was added into the respective well, followed by incubating in a 5% carbon dioxide incubator for 24 hours. The next day, 140 μl of culture medium from each well was transferred to a new 96-well plate. 10 μl of 6.1N trichloroacetic acid was added into each well, which was then cultured in a 50° C. incubator for 30 minutes. The plate was centrifuged at 2500 rpm for 10 minutes to settle any sediment. A detection reagent solution was prepared by diluting the detection reagent (component D kit, catalog: #62000-2, BPS Bioscience) 50-fold in acetic acid. 100 μl of the supernatant taken from the centrifuged plate was transferred to a new transparent 96-well plate and then 100 μl of the detection reagent solution was added thereto. After reacting at room temperature for 10 minutes, absorbance was measured at 480 nm wavelength. For analysis of the results, the absorbance (At) of the well containing Hela cells in which IDO protein expression was induced without treatment of an inhibitor was 100%; and the absorbance (Ab) of the well containing Hela cells in which IDO protein expression was not induced was 0. The % absorbance was calculated according to the following equation: % Absorbance=(A−Ab)/(At−Ab), A=absorbance of the well treated with the test compound.
The results obtained by calculating the 50% inhibitory concentration (C50) of each compound, from the absorbance values obtained as described above, are shown in Table 1 below.

Experiment [2] concerns the target T1, IDO1. Put plainly: IDO1 cellular activity using HEK293 cells transfected with IDO1 expression vector. The experiment is classed as cell-based. More on the design: host or cells: HEK293 cells, transient transfection with Lipofectamine 2000. The note with it: 24 h compound incubation, read-out: Inhibitory Activity (IC50). Here is the method:
HEK293 cells were seeded at a density of 30000 cells/well in 100 μl of a culture medium (DMEM supplemented with 10% FBS, penicillin 100 U/ml, and streptomycin 100 μg/ml) in a tissue culture-treated 96 well plate. The cells were cultured in a 5% carbon dioxide incubator for 24 hours, transfected with the IDO1 expression vector (component A in IDO1 cell-based assay kit, catalog #72031, BPS Bioscience) using Lipofectamine 2000 (Life Technologies, #11668027), and then cultured for 24 hours in a 5% carbon dioxide incubator to express the IDO protein.
The activities were measured using a IDO1 cell-based assay kit (catalog #72031, BPS Bioscience). Specifically, an assay medium was prepared by diluting IDO1 assay medium substrate 1 and IDO1 assay medium supplement 2 in a culture medium at a ratio of 1:100, respectively. The test compounds were diluted to the predetermined concentrations in the fresh assay medium. After removing the culture medium using a multi-pipet, 200 μl of each assay medium containing the test material was added into respective well, followed by incubating in a 5% carbon dioxide incubator for 24 hours. The next day, 140 μl of culture medium from each well was transferred to a new 96-well plate. 10 μl of 6.1N trichloroacetic acid was added into each well, which was then cultured in a 50° C. incubator for 30 minutes. The plate was centrifuged at 2500 rpm for 10 minutes to settle any sediment. A detection reagent solution was prepared by diluting the detection reagent (component D in IDO1 cell-based assay kit, catalog #72031 BPS Bioscience) 50-fold in acetic acid. 100 μl of the supernatant taken from the centrifuged plate was transferred to a new transparent 96-well plate and then 100 μl of the detection reagent solution was added thereto. After reacting at room temperature for 10 minutes, absorbance was measured at 480 nm wavelength. For analysis of the results, the absorbance (At) of the well containing HEK293 cells in which IDO protein was expressed without treatment of an inhibitor was 100%; and the absorbance (Ab) of the well containing HEK293 cells in which IDO protein was not expressed was 0. The % absorbance was calculated according to the following equation: % Absorbance=(A−Ab)/(At−Ab), A=absorbance of the well treated with the test compound.

T1 sequence (P14902 whole entry): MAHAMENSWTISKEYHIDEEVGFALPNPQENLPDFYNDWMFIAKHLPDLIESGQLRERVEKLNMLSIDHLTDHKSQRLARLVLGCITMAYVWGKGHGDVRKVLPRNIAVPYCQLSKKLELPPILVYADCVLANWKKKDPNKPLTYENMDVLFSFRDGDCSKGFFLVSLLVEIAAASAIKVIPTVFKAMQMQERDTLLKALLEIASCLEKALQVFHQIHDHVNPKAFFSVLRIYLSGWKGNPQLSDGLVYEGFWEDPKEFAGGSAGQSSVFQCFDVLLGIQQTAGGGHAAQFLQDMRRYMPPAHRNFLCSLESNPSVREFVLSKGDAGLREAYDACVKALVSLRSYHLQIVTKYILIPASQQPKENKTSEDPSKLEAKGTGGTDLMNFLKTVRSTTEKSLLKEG

Turning to `C[C@H](C[C@H]1CC[C@@H](c2ccnc3ccc(F)cc32)CC1)Nc1nc2ncc(Cl)cc2o1` [Example 31, 6-chloro-N-((R)-1-((cis)-4-(6-fluoroquinolin-4-yl)cyclohexyl)propan-2-yl)oxazolo[4,5-b]pyridin-2-amine], the results for the IC50 in experiment [1] and in experiment [2] were 17.5 nM and 9.1 nM, respectively.

For the molecule `C[C@H](C[C@H]1CC[C@H](c2ccnc3ccc(F)cc32)CC1)Nc1c(F)c(=O)oc2cc(Br)ccc12` [Example 12, 7-bromo-3-fluoro-4-(((R)-1-((trans)-4-(6-fluoroquinolin-4-yl)cyclohexyl)propan-2-yl)amino)-2H-chromen-2-one], the IC50 (usually the concentration that inhibits the measured activity by half) came to 7.2 nM in experiment [1] and 11.2 nM in experiment [2].

`CCOc1ccc2nc(N[C@H](CC)C[C@H]3CC[C@@H](c4ccnc5ccc(F)cc54)CC3)sc2c1` [Example 20, 6-ethoxy-N-((R)-1-((cis)-4-(6-fluoroquinolin-4-yl)cyclohexyl)butan-2-yl)benzo[d]thiazol-2-amine]: the IC50 was found to be 24 nM in experiment [1] and 14.3 nM in experiment [2].

Consider `C[C@H](C[C@H]1CC[C@@H](c2ccnc3ccc(F)cc32)CC1)Nc1nc2c(F)cc(F)cc2s1` [Example 17, 4,6-difluoro-N-((R)-1-((cis)-4-(6-fluoroquinolin-4-yl)cyclohexyl)propan-2-yl)benzo[d]thiazol-2-amine], for which the IC50 in experiment [1] is 19 nM; in experiment [2] it was 20.6 nM.

Turning to `C[C@H](C[C@H]1CC[C@@H](c2ccnc3ccc(F)cc32)CC1)Nc1nc2ncc(Cl)cc2s1` [Example 23, 6-chloro-N-((R)-1-((cis)-4-(6-fluoroquinolin-4-yl)cyclohexyl)propan-2-yl)thiazolo[4,5-b]pyridin-2-amine], the IC50 in experiment [1] was found to be 27 nM; in experiment [2] it was 7.6 nM.

Consider `CCOc1ccc2nc(N[C@H](C)C[C@H]3CC[C@@H](c4ccnc5ccc(F)cc54)CC3)sc2c1` [Example 19, 6-ethoxy-N-((R)-1-((cis)-4-(6-fluoroquinolin-4-yl)cyclohexyl)propan-2-yl)benzo[d]thiazol-2-amine], for which the figures for the IC50 in experiment [1] and in experiment [2] were 14 nM and 8 nM, respectively.

Turning to `C[C@H](C[C@H]1CC[C@@H](c2ccnc3ccc(F)cc32)CC1)Nc1nc2c(F)cccc2o1` [Example 28, 4-fluoro-N-((R)-1-((cis)-4-(6-fluoroquinolin-4-yl)cyclohexyl)propan-2-yl)benzo[d]oxazol-2-amine], the IC50 in experiment [1] was 12 nM; in experiment [2], 8.6 nM.

Take `C[C@H](C[C@H]1CC[C@@H](c2ccnc3ccc(F)cc32)CC1)Nc1nc2cccc(Cl)c2s1` [Example 18, 7-chloro-N-((R)-1-((cis)-4-(6-fluoroquinolin-4-yl)cyclohexyl)propan-2-yl)benzo[d]thiazol-2-amine]: the values for the IC50 in experiment [1] and in experiment [2] were 7.5 nM and 4 nM, respectively.

For the molecule `C[C@H](C[C@H]1CC[C@@H](c2ccnc3ccc(F)cc32)CC1)Nc1c(F)c(=O)oc2cc(Br)ccc12` [Example 11, 7-bromo-3-fluoro-4-(((R)-1-((cis)-4-(6-fluoroquinolin-4-yl)cyclohexyl)propan-2-yl)amino)-2H-chromen-2-one], the IC50 in experiment [1] came out at 18.7 nM; in experiment [2], 18.3 nM.

For `C[C@H](C[C@H]1CC[C@@H](c2ccnc3ccc(F)cc32)CC1)Nc1nc2ncccc2o1` [Example 32, N-((R)-1-((cis)-4-(6-fluoroquinolin-4-yl)cyclohexyl)propan-2-yl)oxazolo[4,5-b]pyridin-2-amine], the results for the IC50 in experiment [1] and in experiment [2] were 11.4 nM and 8.7 nM, respectively.

As to `C[C@H](C[C@H]1CC[C@@H](c2ccnc3ccc(F)cc32)CC1)Nc1cc(=O)oc2cc(Cl)ccc12` [Example 8, 7-chloro-4-(((R)-1-((cis)-4-(6-fluoroquinolin-4-yl)cyclohexyl)propan-2-yl)amino)-2H-chromen-2-one], in experiment [1], the IC50 worked out at 5.9 nM.

For `COc1ccc2nc(N[C@@H](C[C@H]3CC[C@@H](c4ccnc5ccc(F)cc54)CC3)C3CC3)sc2c1` [Example 16, N-((S)-1-cyclopropyl-2-((cis)-4-(6-fluoroquinolin-4-yl)cyclohexyl)ethyl)-6-methoxybenzo[d]thiazol-2-amine], the IC50 in experiment [1] was found to be 4 nM.

Values taken from US20240174636A1, “NOVEL INDOLEAMINE 2,3-DIOXYGENASE INHIBITORS, PROCESSES FOR THE PREPARATION THEREOF AND PHARMACEUTICAL COMPOSITIONS COMPRISING THE SAME” (YUHAN CORPORATION, priority 2021, published 2024).
